# Measured values taken from patent publication US20140357487A1, “PLANTS HAVING INCREASED TOLERANCE TO HERBICIDES” (BASF SE, priority 2011, published 2014).
# How the values were obtained:
# [1] = test system: transgenic Arabidopsis plants overexpressing Barley HPPD (Seq ID: 2); experiment: Arabidopsis growth inhibition in 48-well plates, line overexpressing Barley HPPD; assay type: in vivo, Arabidopsis thaliana; settings: Barley (Seq ID: 2) overexpression line; plant growth IC50 of transgenic divided by that of wildtype plants
# Excerpt: Various methods for the production of stably transformed plants are well known in the art. Coumarone-derivative herbicide tolerant soybean (Glycine max) or corn (Zea mays) plants can be produced by a method described by Olhoft et al. (US patent 2009/0049567). Briefly, HPPD or HST encoding polynucleotides are cloned into a binary vector using standard cloning techniques as described by Sambrook et al. (Molecular cloning (2001) Cold Spring Harbor Laboratory Press). The final vector construct contains an HPPD or HST encoding sequence flanked by a promoter sequence (e.g. the ubiquitin promoter (PcUbi) sequence) and a terminator sequence (e.g. the nopaline synthase terminator (NOS) sequence) and a resistance marker gene cassette (e.g. AHAS) (FIG. 2). Optionally, the HPPD or HST gene can provide the means of selection. Agrobacterium-mediated transformation is used to introduce the DNA into soybean's axillary meristem cells at the primary node of seedling explants. After inoculation and co-cultivation with Agrobacteria, the explants are transferred to shoot induction medium without selection for one week. […]
# Depending on the species, the plants are kept at 10-25° C. or 20-35° C. […] During this time, the plants are tended and their response to the individual treatments is evaluated. […] Tolerance to coumarone-derivative herbicides can also be assessed in Arabidopsis. […]
# [2] = test system: transgenic soybean plants, Arabidopsis Q293S, event SDS-10204; experiment: Greenhouse testing of transgenic soybean plants, Arabidopsis Q293S; assay type: in vivo, Glycine max; settings: soybean SDS-10204, 5 days after herbicide treatment, average of 8 T1
# Excerpt: Various methods for the production of stably transformed plants are well known in the art. Coumarone-derivative herbicide tolerant soybean (Glycine max) or corn (Zea mays) plants can be produced by a method described by Olhoft et al. (US patent 2009/0049567). Briefly, HPPD or HST encoding polynucleotides are cloned into a binary vector using standard cloning techniques as described by Sambrook et al. (Molecular cloning (2001) Cold Spring Harbor Laboratory Press). The final vector construct contains an HPPD or HST encoding sequence flanked by a promoter sequence (e.g. the ubiquitin promoter (PcUbi) sequence) and a terminator sequence (e.g. the nopaline synthase terminator (NOS) sequence) and a resistance marker gene cassette (e.g. AHAS) (FIG. 2). Optionally, the HPPD or HST gene can provide the means of selection. Agrobacterium-mediated transformation is used to introduce the DNA into soybean's axillary meristem cells at the primary node of seedling explants. After inoculation and co-cultivation with Agrobacteria, the explants are transferred to shoot induction medium without selection for one week. The explants are subsequently transferred to shoot induction medium with 1-3 μM imazapyr (Arsenal) for 3 weeks to select for transformed cells. Explants with healthy callus/shoot pads at the primary node are then transferred to shoot elongation medium containing 1-3 μM imazapyr until a shoot elongates or the explant dies. After regeneration, transformants are transplanted to soil in small pots, placed in growth chambers (16 hr day/8 hr night; 25° C. day/23° C. night; 65% relative humidity; 130-150 mE m−2 s−1) and subsequently tested for the presence of the T-DNA via Taqman analysis. After a few weeks, healthy, transgenic positive, single copy events are transplanted to larger pots and allowed to grow in the growth chamber. Transformation of corn plants is done by a method described by McElver and Singh (WO 2008/124495). Plant transformation vector constructs containing HPPD or HST sequences are introduced into maize immature embryos via Agrobacterium-mediated transformation. Transformed cells are selected in selection media supplemented with 0.5-1.5 μM imazethapyr for 3-4 weeks. Transgenic plantlets are regenerated on plant regeneration media and rooted afterwards. Transgenic plantlets are subjected to TaqMan analysis for the presence of the transgene before being transplanted to potting mixture and grown to maturity in greenhouse. Arabidopsis thaliana is transformed with HPPD or HST sequences by floral dip method as described by McElver and Singh (WO 2008/124495). Transgenic Arabidopsis plants are subjected to Tag Man analysis for analysis of the number of integration loci. Transformation of Oryza sativa (rice) are done by protoplast transformation as described by Peng et al. (U.S. Pat. No. 6,653,529)
# Transgenic plants expressing heterologous HPPD or HST enzymes are tested for tolerance against coumarone-derivative herbicides in greenhouse experiments.
# For post emergence treatment, the test plants are first grown to a height of 3 to 15 cm, depending on the plant habit, and only then treated with the herbicides. For this purpose, the test plants are either sown directly and grown in the same containers, or they are first grown separately and transplanted into the test containers a few days prior to treatment.
# Depending on the species, the plants are kept at 10-25° C. or 20-35° C. The test period extends over 3 weeks. During this time, the plants are tended and their response to the individual treatments is evaluated. […] Tolerance to coumarone-derivative herbicides can also be assessed in Arabidopsis. In this case transgenic Arabidopsis thaliana plants are assayed for improved tolerance to coumarone-derivative herbicides in 48-well plates. Seeds are surface sterilized by stirring for 5 min in ethanol+water (70+30 by volume), rinsing one time with ethanol+water (70+30 by volume) and two times with a sterile, deionized water. […]
Structure (SMILES),Tolerance factor [1],"Injury evaluation, scale of 1-100, bleaching phenotype ([2]; 2.5 g/ha)","Injury evaluation, scale of 1-100, bleaching phenotype ([2]; 10 g/ha)","Injury evaluation, scale of 1-100, bleaching phenotype ([2]; 40 g/ha)","Injury evaluation, scale of 1-100, bleaching phenotype ([2]; 6.25 g/ha)","Injury evaluation, scale of 1-100, bleaching phenotype ([2]; 25 g/ha)","Injury evaluation, scale of 1-100, bleaching phenotype ([2]; 100 g/ha)"
"CC1=NOC(c2c(Cl)ccc(C3=C(O)c4ncccc4C(C)(C)S3(=O)=O)c2Cl)C1 (centres unmarked) [Inhibitor 1, 7-[2,4-dichloro-3-(3-methyl-4,5-dihydroisoxazol-5-yl)phenyl]-5,5-dimethyl-6,6-dioxo-thiopyrano[4,3-b]pyridin-8-ol]",10,–,–,–,–,–,–
"CC1(C)c2cccnc2C(O)=C(c2ccc(Cl)nc2Cl)S1(=O)=O [Inhibitor 2, 7-(2,6-dichloro-3-pyridyl)-5,5-dimethyl-6,6-dioxo-thiopyrano[4,3-b]pyridin-8-ol]",3,1,4,21,–,–,–
"Cc1c(C(=O)c2cnn(C)c2O)ccc(S(C)(=O)=O)c1C1=NOCC1 [Topramezone, reference compound]",–,–,–,–,10,17,21
